Earlier results as cited in patent US6503920B1, “Cabergoline and pramipexole: new uses and combinations” (Pharmacia & Upjohn Company, priority 1998, dated 2003).

What was measured:
PSP patients [1] = details: controlled trial
PSP patients [2] = details: 750-1500 mg per day
PSP patients [3] = tested on: PSP patients
PSP patients [4] = details: controlled trial of 7 subjects
PSP patients [5] = details: 10 patients, double blind crossover
PSP patients [6] = details: 120 mg/day, 2-week open label, two patients

SMILES: CCCN1C[C@H](CSC)C[C@@H]2c3cccc4[nH]cc(c34)C[C@H]21 [Pergoline]
- subjects with mild antiparkinsonian effects (PSP patients [1]): 2/3

SMILES: N[C@@H](Cc1ccc(O)c(O)c1)C(=O)O [L-dopa]
- patients showing no effect (PSP patients [2]): 44%
- response rate showing mild to moderate improvement on the basis of clinical impressions (PSP patients [2]): 54%
- most common side effects reported (PSP patients [3]): development of hallucinations

SMILES: CCN(CC)C(=O)N[C@H]1C=C2c3cccc4[nH]cc(c34)C[C@H]2N(C)C1 [Lisuride]
- overall result of the trial (PSP patients [4]): not any significant results
- patients with mild improvement (PSP patients [4]): two patients had a mild improvement

SMILES: CCN1C(=O)CC2(CCN(C)CC2)C1=O [RS-86]
- motor or cognitive changes (PSP patients [5]): no consistent motor or cognitive changes

SMILES: c1ccc2c(c1)OCC(C1=NCCN1)O2 (stereo not drawn) [Idazoxan]
- marginal improvement (PSP patients [6]): 12-34%
- side effects (PSP patients [6]): sympathetic side effects were common
